Series [1] is described as follows: MTS tetrazolium reduction cell viability assay. As to conditions: rat, rat mesangial cells (1097/IRMC cells), TGF-β1 stimulated, CC50 (μM), vs 1% DMSO vehicle. On the technique in general: Tetrazolium assays rely on reduction of a dye to a coloured formazan, in cell work by metabolically active cells.
For series [2], the system named is TGF-β induced [14C]-proline incorporation in rat mesangial cells. In words: [14C]-proline incorporation assay (collagen biosynthesis). The format is cell-based. As to conditions: Rattus norvegicus, Mesangial cell, 44 h, inhibition of TGF-β1 (1 ng/ml) induced [14C]-proline incorporation, IRMC cells.

Bounds are passed on as bounds.

The molecule `C#CCOc1ccc(/C=C/C(=O)Nc2ccccc2C(=O)NC2COC2)cc1OC` [Example 38, (E)-2-(3-(3-methoxy-4-(prop-2-yn-1-yloxy)phenyl)acrylamido)-N-(oxetan-3-yl)benzamide] showed a CC50 at 48 h in series [1] of 236 µM. For the same molecule, the midpoint of inhibition in series [2], the IC50, lay at 38.2 µM.
The corresponding values for `C#CCOc1ccc(/C=C/C(=O)Nc2ccccc2Cl)cc1OC` [Example 3, (E)-N-(2-chlorophenyl)-3-(3-methoxy-4-(prop-2-yn-1-yloxy)phenyl)acrylamide] are 71.1 µM and 3.94 µM.
In the same order, the values of `COc1ccc(/C=C/C(=O)Nc2ccccc2C(=O)O)cc1OCc1cccnc1` [Example 63, (E)-2-(3-(4-methoxy-3-(pyridin-3-ylmethoxy)phenyl)acrylamido)benzoic acid] are 79.4 µM and 18.2 µM.
The corresponding values for `COc1cc(/C=C/C(=O)Nc2ccccc2C(=O)O)ccc1OCCc1ccncc1` [Example 59, (E)-2-(3-(3-methoxy-4-(2-(pyridin-4-yl)ethoxy)phenyl)acrylamido)benzoic acid] are 148 µM and 12.1 µM.
`C#CCOc1ccc(/C=C/C(=O)Nc2ccccc2C(=O)O)c(OCCCN(C)C)c1OC` [Example 86, 2-[[(E)-3-[2-[3-(dimethylamino)propoxy]-3-methoxy-4-prop-2-ynoxy-phenyl]prop-2-enoyl]amino]benzoic acid] came in with a cytotoxic concentration (CC50) at 48 h in series [1] above 300 µM. The IC50 in series [2] stood at 24.9 µM.
The corresponding values for `C#CCOc1ccc(/C=C/C(=O)Nc2ccccc2C(=O)Nc2ccncc2)cc1OC` [Example 44, (E)-2-(3-(3-methoxy-4-(prop-2-yn-1-yloxy)phenyl)acrylamido)-N-(pyridin-4-yl)benzamide] are 11.1 µM and 13.2 µM.
For `C#CCOc1ccc(/C=C/C(=O)N2CCOc3ccccc32)cc1CC` [Example 113, (E)-1-(2H-benzo[b][1,4]oxazin-4(3H)-yl)-3-(3-ethyl-4-(prop-2-yn-1-yloxy)phenyl)prop-2-en-1-one], in series [1], the midpoint of cytotoxicity, the CC50 at 48 h, lay at 32.6 µM. 7.75 µM corresponded to half-maximal inhibition in series [2] (IC50).
With `C#CCOc1ccc(/C=C/C(=O)Nc2ccccc2-c2cn[nH]c2)cc1OC` [Example 24, (E)-N-(2-(1H-pyrazol-4-yl)phenyl)-3-(3-methoxy-4-(prop-2-yn-1-yloxy)phenyl)acrylamide], the half-maximal cytotoxic concentration (CC50) at 48 h in series [1] was determined as 41.4 µM. This molecule yielded an IC50 in series [2] of 13 µM.
The corresponding values for `COc1cc(/C=C/C(=O)Nc2ccccc2C(=O)O)ccc1OCCc1ccccn1` [Example 56, (E)-2-(3-(3-methoxy-4-(2-(pyridin-2-yl)ethoxy)phenyl)acrylamido)benzoic acid] are 150 µM and 32.2 µM.
For the molecule `COc1cc(/C=C/C(=O)N2CCOc3ccccc32)ccc1OC1CCN(C)C1` (stereo not drawn) [Example 118, (E)-1-(2H-benzo[b][1,4]oxazin-4(3H)-yl)-3-(3-methoxy-4-((1-methylpyrrolidin-3-yl)oxy)phenyl)prop-2-en-1-one], in series [1], the CC50 at 48 h came to 25.5 µM. The IC50 in series [2] turned out to be 14.3 µM.
In the same order, the values of `COCc1cc(/C=C/C(=O)Nc2ccccc2C(=O)O)ccc1OC` [Example 73, (E)-2-(3-(4-methoxy-3-(methoxymethyl)phenyl)acrylamido)benzoic acid] are above 300 µM and 33.1 µM.
The corresponding values for `C#CCOc1ccc(/C=C/C(=O)Nc2ccccc2C(=O)NCCN(C)C)cc1OC` [Example 30, (E)-N-(2-(dimethylamino)ethyl)-2-(3-(3-methoxy-4-(prop-2-yn 1 yloxy)phenyl)acrylamido) benzamide] are 37.2 µM and 11.8 µM.
In the same order, the values of `C#CCOc1ccc(/C=C/C(=O)Nc2ccccc2C)cc1OC` [Example 5, (E)-3-(3-methoxy-4-(prop-2-yn-1-yloxy)phenyl)-N-(o-tolyl)acrylamide] are 369 µM and 10.6 µM.
Consider `COc1cc(/C=C/C(=O)Nc2ccc(Cl)cc2)ccc1OCC1COC1` [Example 153, (E)-N-(4-chlorophenyl)-3-(3-methoxy-4-(oxetan-3-ylmethoxy)phenyl)acrylamide], for which the 50% cytotoxic concentration (CC50) at 48 h in series [1] was above 300 µM. For the same molecule, it took 35.4 µM to reach half-maximal inhibition in series [2] (IC50).
In series [1], `COc1cc(/C=C/C(=O)Nc2ccccc2C(=O)O)ccc1OCCc1cccnc1` [Example 57, (E)-2-(3-(3-methoxy-4-(2-(pyridin-3-yl)ethoxy)phenyl)acrylamido)benzoic acid] came in with a CC50 at 48 h above 76.6 µM. For the same molecule, in series [2], half-maximal inhibition (IC50) required 9.37 µM.
In the same order, the values of `C#CCOc1ccc(C2CC2C(=O)N2CCOc3ccccc32)cc1OC` (stereo not drawn) [Example 119, (2H-benzo[b][1,4]oxazin-4(3H)-yl)(2-(3-methoxy-4-(prop-2-yn-1-yloxy)phenyl)cyclopropyl) methanone] are 74.8 µM and 24.7 µM.
In the same order, the values of `C#CCOc1ccc(/C=C/C(=O)Nc2ccccc2C#N)c(OC2CCN(C)CC2)c1OC` [Example 89, (E)-N-(2-cyanophenyl)-3-[3-methoxy-2-[(1-methyl-4-piperidyl)oxy]-4-prop-2-ynoxy-phenyl]prop-2-enamide] are 19.8 µM and 4.66 µM.
The corresponding values for `COc1cc(/C=C/C(=O)Nc2ccccc2Cl)ccc1OCC1COC1` [Example 152, (E)-N-(2-chlorophenyl)-3-(3-methoxy-4-(oxetan-3-ylmethoxy)phenyl)acrylamide] are above 300 µM and 38.2 µM.
As to `C#CCOc1ccc(/C=C/C(=O)Nc2cccc(C#N)c2)c(OCCN(C)C)c1OC` [Example 76, (E)-N-(3-cyanophenyl)-3-[2-[2-(dimethylamino)ethoxy]-3-methoxy-4-prop-2-ynoxy-phenyl]prop-2-enamide], half-maximal cytotoxicity in series [1] (CC50 at 48 h) was put at 18.1 µM. The molecule also came in with a half-maximal inhibitory concentration (IC50) in series [2] of 14.9 µM.
The corresponding values for `COc1cc(C2CC2C(=O)Nc2ccccc2Cl)ccc1OCC1COC1` (stereo not drawn) [Example 155, N-(2-chlorophenyl)-2-(3-methoxy-4-(oxetan-3-ylmethoxy)phenyl)cyclopropane-1-carboxamide] are 196 µM and 18.7 µM.
In the same order, the values of `COc1cc(/C=C/C(=O)Nc2ccccc2C(=O)O)ccc1OCC1CCNCC1` [Example 50, (E)-2-(3-(3-methoxy-4-(piperidin-4-ylmethoxy)phenyl)acrylamido)benzoic acid] are 107 µM and 47.4 µM.
In the same order, the values of `C#CCOc1ccc(/C=C/C(=O)Nc2ccccc2C(=O)O)c(OC2CCNCC2)c1OC` [Example 83, 2-[[(E)-3-[3-methoxy-2-(4-piperidyloxy)-4-prop-2-ynoxy-phenyl]prop-2-enoyl]amino]benzoic acid] are above 300 µM and 32.5 µM.
On to `C#CCOc1ccc(C2CC2C(=O)Nc2ccc(C#N)cc2)cc1OC` (stereo not drawn) [Example 135, N-(4-cyanophenyl)-2-(3-methoxy-4-(prop-2-yn-1-yloxy)phenyl)cyclopropanecarboxamide], for which, in series [1], the 50% cytotoxic concentration (CC50) at 48 h was above 300 µM. Further, inhibition in series [2] was half-maximal at 45.3 µM (IC50).
In series [1], `C#CCOc1ccc(/C=C/C(=O)Nc2ccc(F)cc2)cc1CC` [Example 125, (E)-3-(3-ethyl-4-(prop-2-yn-1-yloxy)phenyl)-N-(4-fluorophenyl)acrylamide] registered a CC50 at 48 h above 300 µM. The molecule further gave a concentration for half-maximal inhibition (IC50) in series [2] of 17.6 µM.
The corresponding values for `C#CCOc1ccc(/C=C/C(=O)Nc2ccccc2C(=O)Nc2ccn(C)n2)cc1OC` [Example 48, (E)-2-(3-(3-methoxy-4-(prop-2-yn-1-yloxy)phenyl)acrylamido)-N-(1-methyl-1H-pyrazol-3-yl)benzamide] are 309 µM and 23.9 µM.
In the same order, the values of `CCc1ccc(/C=C/C(=O)Nc2ccccc2C(=O)O)cc1OC` [Example 100, (E)-2-(3-(4-ethyl-3-methoxyphenyl)acrylamido)benzoic Acid] are 37 µM and 9.29 µM.
The corresponding values for `CN1C(=O)COc2ccc(/C=C/C(=O)Nc3ccccc3C(=O)O)cc21` [Example 112, (E)-2-(3-(4-methyl-3-oxo-3,4-dihydro-2H-benzo[b][1,4]oxazin-6-yl)acrylamido)benzoic acid] are above 300 µM and 13 µM.
Regarding `COc1cc(C2CC2C(=O)Nc2ccc(F)cc2)ccc1OC1CCN(C)C1` (stereo not drawn) [Example 136, N-(4-fluorophenyl)-2-(3-methoxy-4-((1-methylpyrrolidin-3-yl)oxy)phenyl)cyclopropane-1-carboxamide], the CC50 at 48 h in series [1] is 16.3 µM. In series [2], this molecule displayed an IC50 of 4.13 µM.
The corresponding values for `C#CCOc1ccc(/C=C/C(=O)Nc2ccccc2C(=O)NCCN2CCOCC2)cc1OC` [Example 35, (E)-2-(3-(3-methoxy-4-(prop-2-yn-1-yloxy)phenyl)acrylamido)-N-(2-morpholinoethyl)benzamide] are 301 µM and 37.4 µM.
In the same order, the values of `C#CCOc1ccc(/C=C/C(=O)N2CCCc3ccccc32)cc1OC` [Example 10, (E)-1-(3,4-dihydroquinolin-1(2H)-yl)-3-(3-methoxy-4-(prop-2-yn-1-yloxy)phenyl)prop-2-en-1-one] are 66.4 µM and 6.04 µM.
In the same order, the values of `COc1ccc(/C=C/C(=O)Nc2cccc(Cl)c2)cc1N1CCOCC1` [Example 151, (E)-N-(3-chlorophenyl)-3-(4-methoxy-3-morpholinophenyl)acrylamide] are above 300 µM and 31.6 µM.
The molecule `COc1ccc(/C=C/C(=O)Nc2cccnc2)cc1OCc1cnn(C)c1` [Example 150, (E)-3-(4-methoxy-3-((1-methyl-1H-pyrazol-4-yl)methoxy)phenyl)-N-(pyridin-3-yl)acrylamide] returned a CC50 at 48 h in series [1] above 31.6 µM. Also, the IC50 in series [2] came out at 4.08 µM.
Turning to `COc1ccc(/C=C/C(=O)Nc2ccccc2C(=O)O)cc1OCCc1cccnc1` [Example 64, (E)-2-(3-(4-methoxy-3-(2-(pyridin-3-yl)ethoxy)phenyl)acrylamido)benzoic acid], it took 142 µM to reach half-maximal cytotoxicity in series [1] (CC50 at 48 h). Moreover, the half-inhibitory concentration (IC50) in series [2] worked out at 14.2 µM.

For orientation: CC50 means the concentration giving 50% cytotoxicity. In general, IC50 refers to the concentration at which inhibition is half-maximal. A higher IC50 goes with weaker potency.

(Values after patent publication US11603349B2, “Anti-fibrotic compounds” (Certa Therapeutics Pty Ltd, priority 2017, dated 2023).)
